Assay results reported in ChEMBL document CHEMBL4480391, “Discovery and synthesis of sulfur-containing 6-substituted 5,8-dimethoxy-1,4-naphthoquinone oxime derivatives as new and potential anti-MDR cancer agents” (Eur J Med Chem, 2019).

What was measured:
[1] = Selectivity index, ratio of IC50 for human HSF cells to IC50 for human HCT15 cells; format: toxicity; conditions: HSF cells versus HCT15 cells, read-out: Ratio IC50
[2] = Selectivity ratio of IC50 for human […] cells to IC50 for human Bel7402/5-FU cells; format: functional
[3] = test system: NCI/ADR-RES; experiment: Cytotoxicity against human MCF7/ADR cells after 72 hrs by MTT assay; format: functional, cell-based
[4] = test system: K562; experiment: Cytotoxicity against human K562 cells after 72 hrs by MTT assay; format: functional, cell-based; conditions: K562, 72 h
[5] = test system: HCT-15; experiment: Cytotoxicity against human HCT15 cells after 72 hrs by MTT assay; format: functional, cell-based; conditions: HCT-15, 72 h
[6] = Cytotoxicity against human […] cells after 72 hrs by MTT assay; format: functional, cell-based
[7] = test system: A549/TR; experiment: Cytotoxicity against human A549/TAX cells after 72 hrs by MTT assay; format: functional, cell-based
[8] = test system: Bel7402/5-FU; experiment: Cytotoxicity against human Bel7402/5-FU cells after 72 hrs by MTT assay; format: functional, cell-based
[9] = Cytotoxicity against human HSF cells after 72 hrs by MTT assay; format: cell-based
[10] = Selectivity ratio of IC50 for human A549 cells to IC50 for human A549/TAX cells; format: functional
[11] = test system: MCF7; experiment: Cytotoxicity against human MCF7 cells after 72 hrs by MTT assay; format: functional, cell-based; conditions: MCF7, 72 h
[12] = Selectivity ratio of IC50 for human MCF7 cells to IC50 for human MCF7/ADR cells; format: functional
[13] = test system: MGC-803; experiment: Cytotoxicity against human MGC803 cells after 72 hrs by MTT assay; format: functional, cell-based; conditions: MGC-803, 72 h
[14] = test system: A549; experiment: Cytotoxicity against human A549 cells after 72 hrs by MTT assay; format: functional, cell-based; conditions: A549, 72 h

Row | SMILES | selectivity ratio [1] | Ratio IC50 [2] | IC50 [3] | IC50 [4] | IC50 [5] | IC50 [6] | IC50 [7] | IC50 [8] | IC50 [9] | Ratio IC50 [10] | IC50 [11] | Ratio IC50 [12] | IC50 [13] | IC50 [14]
1 | CCCCCCCC(SC(=O)c1cc(OC)c(OC)c(OC)c1)c1cc(OC)c2c(c1OC)/C(=N/O)C=C/C2=N\O (stereo not drawn) | > 51 | 1.9 | 7.88 µM | 0.85 µM | 0.98 µM | 2.96 µM | 2.25 µM | 1.56 µM | > 50 µM | 7.96 | 20.7 µM | 2.7 | 1.21 µM | 17.9 µM
2 | CCCCCCCCC(SC(=O)c1ccc(C)cc1)c1cc(OC)c2c(c1OC)/C(=N/O)C=C/C2=N\O (stereo not drawn) | > 94.3 | 1.22 | 3.98 µM | 0.97 µM | 0.53 µM | 0.93 µM | 1.82 µM | 0.76 µM | > 50 µM | 7.62 | 18.9 µM | 4.74 | 0.94 µM | 13.9 µM
3 | CCCCCCCCC(SC(=O)c1ccc(OC)c(OC)c1)c1cc(OC)c2c(c1OC)/C(=N/O)C=C/C2=N\O (stereo not drawn) | > 109 | 1.3 | 2.63 µM | 0.75 µM | 0.46 µM | 0.74 µM | 0.96 µM | 0.57 µM | > 50 µM | 10.9 | 13.1 µM | 4.97 | 0.95 µM | 10.5 µM
4 | CCCCCCCCC(SC(=O)c1cc(OC)c(OC)c(OC)c1)c1cc(OC)c2c(c1OC)/C(=N/O)C=C/C2=N\O (stereo not drawn) | > 100 | 1.81 | 2.47 µM | 0.68 µM | 0.5 µM | 0.56 µM | 0.81 µM | 0.31 µM | > 50 µM | 11.5 | 14.8 µM | 6.01 | 0.91 µM | 9.28 µM
5 | CCCCCCCC(SCCC(C)C)c1cc(OC)c2c(c1OC)/C(=N/O)C=C/C2=N\O (stereo not drawn) | > 61 | 1.53 | 18.5 µM | 1 µM | 0.82 µM | 4.47 µM | 4.52 µM | 2.92 µM | > 50 µM | 5.38 | 38.6 µM | 2.09 | 1.35 µM | 24.3 µM
6 | CCCCCCCCCC(SC(=O)c1cc(OC)c(OC)c(OC)c1)c1cc(OC)c2c(c1OC)/C(=N/O)C=C/C2=N\O (stereo not drawn) | > 61 | 1.2 | 5.48 µM | 0.79 µM | 0.82 µM | 1.34 µM | 1.01 µM | 1.12 µM | > 50 µM | 15.9 | 19.3 µM | 3.51 | 1.25 µM | 16.1 µM
7 | CCCCCCCCC(SCCC(C)C)c1cc(OC)c2c(c1OC)/C(=N/O)C=C/C2=N\O (stereo not drawn) | > 92.6 | 3.16 | 14 µM | 0.76 µM | 0.54 µM | 2.31 µM | 1.18 µM | 0.73 µM | > 50 µM | 16 | 33.6 µM | 2.41 | 1.09 µM | 18.9 µM
